Test results taken from patent publication US12697326B2, “Methods of treating hepatic encephalopathy” (SALIX PHARMACEUTICALS, INC., priority 2008, dated 2026).

Legend:
[1] = test system: Epworth Sleepiness Scale in subjects with HE; assay: Epworth Sleepiness Scale total score; type: in vivo, human; details: 550 mg BID
From the text: Total scores for the Epworth Sleepiness Scale were computed and summarized at baseline and Days 28, 56, 84, 112, 140 and 168 using descriptive statistics. Treatment differences for mean change in total scores from baseline to Days 28, 56, 84, 112, 140 and 168 were summarized and compared between treatments.

[2] = test system: HE-caused hospitalization in subjects with HE; assay: HE-caused hospitalization, first study; type: in vivo, human
From the text: FIG. 5 illustrates time to first HE-caused hospitalizations by treatment group in the first study. […] Note for FIG. 10, the survival distribution estimate on y-axis represents the proportion of subjects without HE-caused hospitalizations. Dashed line represents rifaximin group and solid line represents placebo group. Open circles and open triangles represent censored subjects. Subjects who discontinued prior to hospitalization were censored at the time of discontinuation.

[3] = test system: Conn score (mental state grade) in subjects with HE; assay: Time to any increase from baseline in Conn score, first study; type: in vivo, human
From the text: Measurements of change in mental status may be done, for example, by the Conn score (also known as the West Haven score). The Conn score has been widely used as a measure of mental state in HE studies and is based on the criteria of Parsons-Smith as modified by Conn. Asterixis will not be considered when assessing the subject's status using the Conn scoring criteria listed below.
The scale used in the Conn scoring system is provided below. • Grade 0=No personality or behavioral abnormality detected • Grade 1=Trivial lack of awareness, euphoria or anxiety; shortened attention span; impairment of addition or subtraction • Grade 2=Lethargy; disorientation for time; obvious personality change; inappropriate behavior • Grade 3=Somnolence to semi-stupor, responsive to stimuli; confused; gross disorientation; bizarre behavior • Grade 4=Coma; unable to test mental state
FIG. 11 illustrates time to any increase from baseline in Conn score by treatment group in the ITT population. Table 20 presents estimates of the proportions of subjects who had any increase in Conn score over the course of the Treatment Period and results of statistical analyses. Subjects who discontinued prior to experiencing an increase in Conn score and prior to completion of the 6-month treatment period were censored at the time of discontinuation.

in vitro = details: human, in vivo
[4] = any increase from baseline in Conn score, 550 mg BID, N = 140, Days >=168
[5] = any increase from baseline in Conn score; 550 mg BID; N = 140; Days [0-28)
[6] = any increase from baseline in Conn score; 550 mg BID; N = 140; Days [28-56)
[7] = any increase from baseline in Conn score; 550 mg BID; N = 140; Days [56-84)
[8] = any increase from baseline in Conn score; 550 mg BID; N = 140; Days [84-140)
[9] = any increase from baseline in Conn score; 550 mg BID; N = 140; Days [140-168)
[10] = first study, ITT, first increase in Conn score, N = 140, treatment interval 0 to <28 days
[11] = first study, ITT, first increase in Conn score, N = 140, treatment interval 28 to <56 days
[12] = first study, ITT, first increase in Conn score, N = 140, treatment interval 56 to <84 days
[13] = first study, ITT, first increase in Conn score, N = 140, treatment interval 84 to <140 days
[14] = first study, ITT, first increase in Conn score, N = 140, treatment interval 140 to <168 days
[15] = first study, ITT, first increase in Conn score, N = 140, treatment interval ≥168 days

## CO[C@H]1/C=C/O[C@@]2(C)Oc3c(C)c(O)c4c(O)c(c5c(nc6cc(C)ccn65)c4c3C2=O)NC(=O)/C(C)=C\C=C\[C@H](C)[C@H](O)[C@@H](C)[C@@H](O)[C@@H](C)[C@H](OC(C)=O)[C@@H]1C [Rifaximin]
[1]; Baseline to Day 28
  Change from Baseline for Epworth Sleepiness Total Score, Max: 7
  Change from Baseline for Epworth Sleepiness Total Score, Mean: −0.2
  Change from Baseline for Epworth Sleepiness Total Score, Median: 0.0
  Change from Baseline for Epworth Sleepiness Total Score, Min: −14
[1]; Day 28
  Epworth Sleepiness Total Score, Max: 23
  Epworth Sleepiness Total Score, Mean: 10.0
  Epworth Sleepiness Total Score, Median: 9.0
  Epworth Sleepiness Total Score, Min: 0
[2]; 6-month treatment period
  reduction in risk of HE-caused hospitalization compared with placebo: 56%
[2]; rifaximin group
  HE-caused hospitalization rate: 0.30 events/PEY
  subjects with HE-caused hospitalizations (of 140): 15
[3]; [4]
  Cumulative Occurrences of Events: 37
  Occurrences of Events: 1
  Survival: 0.7302
[3]; [5]
  Cumulative Occurrences of Events: 17
  Occurrences of Events: 17
  Survival: 1.0000
[3]; [6]
  Cumulative Occurrences of Events: 22
  Occurrences of Events: 5
  Survival: 0.8777
[3]; [7]
  Cumulative Occurrences of Events: 31
  Occurrences of Events: 9
  Survival: 0.8407
[3]; [8]
  Cumulative Occurrences of Events: 36
  Occurrences of Events: 5
  Survival: 0.7713
[3]; [9]
  Cumulative Occurrences of Events: 36
  Occurrences of Events: 0
  Survival: 0.7302
[3]; [10]
  Cummulative number of events: 17
  Number of events: 17
  Probability of no increase in Conn score: 1.0000
[3]; [11]
  Cummulative number of events: 22
  Number of events: 5
[3]; [12]
  Cummulative number of events: 31
  Number of events: 9
[3]; [13]
  Cummulative number of events: 36
  Number of events: 5
[3]; [14]
  Cummulative number of events: 36
  Number of events: 0
[3]; [15]
  Cummulative number of events: 37
  Number of events: 1
[3]; first study, rifaximin group
  subjects with increases in Conn score (of 140): 37
[3]; in vivo
  time to first increase in Conn scores vs placebo (FIG. 4, Kaplan Meier): increased time to the first increase in Conn scores
In vitro
  fraction unbound: 0.447
